Experimental data from patent US20210002242A1, “DIACYLGLYCEROL LACTONE COMPOUND, PREPARATION METHOD THEREFOR, AND IMMUNOSTIMULATOR CONTAINING SAME AS ACTIVE INGREDIENT” (priority 2018, published 2021).

Assays:
CXCL8 (IL-8) = experiment: Increase in expression of CXCL8 (IL-8) in THP-1 cells, human IL-8 ELISA of culture supernatant; type: cell-based; details: for CXCL8 [IL-8] concentration (pg/μl, average ± deviation): THP-1 cells, 24 hours, supernatant
Method: In RPMI (Hyclone, Thermo Scientific) medium to which 10% Fetal Bovine Serum was added, THP-1 cells, a human macrophage family, were suspended at a concentration of 1×10^5 cells/ml, and culture was conducted in a 5% CO2 humidified incubator at 37° C. The cultured THP-1 cells were inoculated into a 12 well plate by 1×10^6 cells/ml and stabilized for 30 minutes. Then, the culture solution was treated with a diacylglycerol lactone compound of the type shown in Table 2 below for 1 hour and then was treated with Gemcitabine (2 μg/ml) of a cell stimulator, and subsequent further incubation was conducted for 24 hours. Thereafter 1.5 ml of the culture supernatant was collected for each well and centrifuged (at 3000 rpm, 5 minutes) to recover the supernatant. The CXCL8 (IL-8) level in the recovered supernatant was measured according to the manual provided by the human IL-8 ELISA set (BD Biosciences). The day before ELISA was carried out, the IL-8 capture antibody was diluted in phosphate buffered saline, coated on a microwell, and then stored at 4° C. overnight. Each well was washed three times with a washing buffer solution and then blocked with 2% Bovine Serum Albumin (BSA) for 1 hour at room temperature. After washing with washing buffer solution three times, 100 μl of sample was dispensed into each well and left at room temperature for 2 hours. Detection antibody which was washed 3 times with washing buffer and diluted was dispensed into each well and allowed to react at room temperature for 1 hour and left at room temperature for 1 hour. Thereafter, the secondary HRP conjugated antibody was reacted at room temperature for 30 minutes, washed three times with a washing buffer, and treated with 50 μl of stop solution for each well, and then the optical density was measured at 450 nm with an ELISA microplate leader.

RAW264.7 cells = experiment: Cytotoxicity assessment, cell viability by EZ-Cytox (WST), OD 450 nm; type: cell-based, mouse; details: 100 μg/ml, 24 hours
Method: In DMEM (Dulbecco Modified Eagle Medium) medium with 10% Fetal Bovine Serum added, RAW264.7 cells, which are cells of the mouse macrophage family, were suspended at a concentration of 1×10^5 cells/ml, and then were inoculated into 96 well plates by 100 μl, and culture was conducted for 15 hours. […] According to the EZ-CYTOX (Daeillab_EZ-1000) manual for measuring the amount of living cells using WST, 10 μl of EZ-Cytox was added to each well and reacted for up to 2 hours from 30 minutes, and then an optical density (OD) at 450 nm was measured.

[1] = compound 100 μg/ml for 1 hour, then Gemcitabine 2 μg/ml

SMILES | CXCL8 [IL-8] concentration (pg/μl, average ± deviation) (CXCL8 (IL-8); [1]) | RAW264.7 cell viability (RAW264.7 cells) | secretion of CXCL8 (IL-8) chemokine, increase compared to the negative control group (CXCL8 (IL-8); THP-1 cells treated with Gemcitabine) | CXCL8 [IL-8] concentration (pg/μl, average ± deviation) (CXCL8 (IL-8); Gemcitabine 2 μg/ml alone)
CCCCCCCCCCCCCCCC(=O)OCC1(COC(=O)CCCCCCCCCCCCC)CCC(=O)O1 (stereo not shown) [EC-A137] | 133.12 ± 8.43 pg/µL | 93.87 ± 8.85% | – | –
CCCCC/C=C\C/C=C\CCCCCCCC(=O)OCC1(COC(=O)CCC)CCC(=O)O1 (racemic) [EC-A116] | 865.54 ± 12.31 pg/µL | 141.09 ± 5.01% | – | –
CCCCCCCCCCCCCCCC(=O)OCC1(COC(=O)C(C)C)CCC(=O)O1 (racemic) [EC-A131] | 1256.19 ± 15.96 pg/µL | 100.25 ± 14.78% | – | –
CCCCCCCCCCCCCCCC(=O)OCC1(COC(=O)CCCCCCCCCCC)CCC(=O)O1 (stereo not shown) [EC-A136] | 138.93 ± 2.96 pg/µL | 95.54 ± 3.01% | – | –
Nc1ccn([C@@H]2O[C@H](CO)[C@@H](O)C2(F)F)c(=O)n1 [Gemcitabine, reference compound] | – | – | about five | 101.83 ± 1.59 pg/µL
CCCCC/C=C\C/C=C\CCCCCCCC(=O)OCC1(COC(=O)C2CCCCC2)CCC(=O)O1 (racemic) [EC-A128] | 351.03 ± 7.75 pg/µL | – | – | –
CCCCCCCCCCCCCCCC(=O)OCC1(COC(=O)C(C)(C)C)CCC(=O)O1 (stereo not shown) [EC-A132] | 921.35 ± 52.46 pg/µL | 96.58 ± 5.01% | – | –
CCCCC/C=C\C/C=C\CCCCCCCC(=O)OCC1(COC(=O)CCCCC)CCC(=O)O1 (racemic) [EC-A118] | 622.16 ± 6.61 pg/µL | – | – | –
CCCCCCCCCCCCCCCC(=O)OCC1(COC(=O)C2CC2)CCC(=O)O1 (stereo not shown) [EC-A134] | 1266.03 ± 2.05 pg/µL | 110.06 ± 4.19% | – | –
CCCCC/C=C\C/C=C\CCCCCCCC(=O)OCC1(COC(=O)CCCCCCCCCCC)CCC(=O)O1 (racemic) [EC-A121] | 215.38 ± 4.33 pg/µL | 114.25 ± 33.11% | – | –
CCCCC/C=C\C/C=C\CCCCCCCC(=O)OCC1(COC(=O)CCCCCCCCCCCCC)CCC(=O)O1 (racemic) [EC-A122] | 190.06 ± 4.56 pg/µL | 105.48 ± 3.92% | – | –
CCCCCC=CCC=CCCCCCCCC(=O)OCC1(COC(=O)C(C)CC)CCC(=O)O1 (mixture of isomers) [EC-A126] | 352.96 ± 0.45 pg/µL | – | – | –
CCCCC/C=C\C/C=C\CCCCCCCC(=O)OCC1(COC(=O)CCCCCCCC)CCC(=O)O1 (racemic) [EC-A120] | 237.80 ± 3.64 pg/µL | – | – | –
CCCCC/C=C\C/C=C\CCCCCCCC(=O)OCC1(COC(=O)CCCCCC)CCC(=O)O1 (racemic) [EC-A119] | 343.61 ± 7.75 pg/µL | – | – | –
CCCCC/C=C\C/C=C\CCCCCCCC(=O)OCC1(COC(=O)C2CC2)CCC(=O)O1 (racemic) [EC-A127] | 532.32 ± 1.82 pg/µL | – | – | –
CCCCC/C=C\C/C=C\CCCCCCCC(=O)OCC1(COC(=O)CC)CCC(=O)O1 (racemic) [EC-A115] | 1202.80 ± 38.09 pg/µL | – | – | –
CCCCC/C=C\C/C=C\CCCCCCCC(=O)OCC1(COC(=O)CCCC)CCC(=O)O1 (racemic) [EC-A117] | 568.12 ± 8.21 pg/µL | – | – | –
CCCCCCCCCCCCCCCC(=O)OCC1(COC(=O)C2CCCCC2)CCC(=O)O1 (stereo not shown) [EC-A135] | 310.87 ± 14.37 pg/µL | – | – | –
CCCCC/C=C\C/C=C\CCCCCCCC(=O)OCC1(COC(=O)C(C)C)CCC(=O)O1 (racemic) [EC-A124] | 663.45 ± 2.96 pg/µL | – | – | –
CCCCCCCCCCCCCCCC(=O)OCC1(COC(=O)C(C)CC)CCC(=O)O1 (stereo not shown) [EC-A133] | 1176.67 ± 29.42 pg/µL | 114.45 ± 3.46% | – | –
CCCCC/C=C\C/C=C\CCCCCCCC(=O)OCC1(COC(=O)C(C)(C)C)CCC(=O)O1 (racemic) [EC-A125] | 252 ± 11.86 pg/µL | – | – | –
